Literature values in US11974997B2, “RORgamma modulators and uses thereof” (Genfit, priority 2017, dated 2024).

How the values were obtained:
[1] = administered by injection; cited from earlier work
[2] = administered by injection; cited from earlier work; remark: listed apart in the source

**Q.** With `CC(=O)Nc1nc(C)c(S(=O)(=O)Nc2ccc(C(O)(C(F)(F)F)C(F)(F)F)cc2)s1` [SR1001] as the compound, how does the “efficacy in multiple sclerosis model” value [1] read?
**A.** The value was “efficacious”.

**Q.** Which “efficacy in psoriasis model” value [2] does the source give for `Cc1ccc([C@@H](NC(=O)Cc2ccc3oc([C@@H](O)c4c(C)noc4C)cc3c2)c2ccccc2)c(C)c1` [TMP778] here?
**A.** The value was “efficacious”.
